Like-named read-outs stand apart in the source and are kept apart here.
Biological target: T1, BCL6 (Homo sapiens, UniProt P41182)
T1 construct: endogenous in cells; host or cells: T47D breast cancer epithelial cells
Test: Immunofluorescence protocol for high content imaging of BCL6 (degradation) in T47D cells, 3 days compound treatment
Assay type: cell-based
Conditions: for Dmax: read-out: Mean Dmax (%)** category; for DC50: read-out: Mean DC50 (nM)* category
How it was run: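 For degradation, compound series (3-fold, 11 points, top 0.1 or 1 μM final) were added to adherent T47D cultures for 3 days. BCL6 immunostaining used a rabbit antibody at 1:300 and an Alexa-488 secondary, with imaging at 10× magnification.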

[1] = T47D cells, 3 days compound treatment

Compound `CNC(=O)COc1cc2cc(Nc3nc(N4CCC(OC5CCC6(CC5)CN(c5cc(OC)cc7c5CN(C5CCC(=O)NC5=O)C7=O)C6)CC4)ncc3Cl)ccc2n(C(C)C)c1=O` (stereo not shown) [Compound 301, 2-{[6-({5-chloro-2-[4-({2-[2-(2,6-dioxopiperidin-3-yl)-6-methoxy-1-oxo-2,3-dihydro-1H-isoindol-4-yl]-2-azaspiro[3.5]nonan-7-yl}oxy)piperidin-1-yl]pyrimidin-4-yl}amino)-2-oxo-1-(propan-2-yl)-1,2-dihydroquinolin-3-yl]oxy}-N-methylacetamide] has a Dmax (T47D) of 50 to 70% and a DC50 of less than 10 nM.

With `CNC(=O)COc1cc2cc(Nc3nc(N4CCC(O[C@H]5C[C@H](N6CCCC7(CCN(c8ccc9c(c8)C(=O)N(C8CCC(=O)NC8=O)C9=O)C7)C6)C5)CC4)ncc3Cl)ccc2n(C(C)C)c1=O` (stereo partly shown) [Compound 355, 2-({6-[(5-chloro-2-{4-[(1r,3r)-3-{2-[2-(2,6-dioxopiperidin-3-yl)-1,3-dioxo-2,3-dihydro-1H-isoindol-5-yl]-2,7-diazaspiro[4.5]decan-7-yl}cyclobutoxy]piperidin-1-yl}pyrimidin-4-yl)amino]-2-oxo-1-(propan-2-yl)-1,2-dihydroquinolin-3-yl}oxy)-N-methylacetamide] the Dmax (T47D) was no less than 70% and the DC50 was less than 10 nM.

Compound `CNC(=O)COc1cc2cc(Nc3nc(N4CCC(OC5CCC6(CC5)CN(c5cccc7c5CN(C5CCC(=O)NC5=O)C7=O)C6)CC4)ncc3Cl)ccc2n(C(C)C)c1=O` (stereo not shown) [Compound 61, 2-{[6-({5-chloro-2-[4-({2-[2-(2,6-dioxopiperidin-3-yl)-1-oxo-2,3-dihydro-1H-isoindol-4-yl]-2-azaspiro[3.5]nonan-7-yl}oxy)piperidin-1-yl]pyrimidin-4-yl}amino)-2-oxo-1-(propan-2-yl)-1,2-dihydroquinolin-3-yl]oxy}-N-methylacetamide] has a DC50 [1] of less than 10 nM and a Dmax [1] of 50 to 70%.

`CNC(=O)COc1cc2cc(Nc3cc(N4CCC(F)(CN5CCC6(CC5)CN(c5ccc7c(c5)CN(C5CCC(=O)NC5=O)C7=O)C6(C)C)CC4)ncc3Cl)ccc2n(C(C)C)c1=O` (stereo not shown) [Compound 240, 2-{[6-({5-chloro-2-[4-({2-[2-(2,6-dioxopiperidin-3-yl)-1-oxo-2,3-dihydro-1H-isoindol-5-yl]-1,1-dimethyl-2,7-diazaspiro[3.5]nonan-7-yl}methyl)-4-fluoropiperidin-1-yl]pyridin-4-yl}amino)-2-oxo-1-(propan-2-yl)-1,2-dihydroquinolin-3-yl]oxy}-N-methylacetamide] showed a Dmax (T47D) of no less than 70% and a DC50 of less than 10 nM.

Compound `CNC(=O)COc1cc2cc(Nc3nc(N4CCC(O[C@H]5C[C@H](N6CCC7(CN(c8ccc9c(c8F)CN(C8CCC(=O)NC8=O)C9=O)C7)C6)C5)CC4)ncc3Cl)ccc2n(C(C)C)c1=O` (stereo partly shown) [Compound 405, 2-({6-[(5-chloro-2-{4-[(1r,3r)-3-{2-[2-(2,6-dioxopiperidin-3-yl)-4-fluoro-1-oxo-2,3-dihydro-1H-isoindol-5-yl]-2,6-diazaspiro[3.4]octan-6-yl}cyclobutoxy]piperidin-1-yl}pyrimidin-4-yl)amino]-2-oxo-1-(propan-2-yl)-1,2-dihydroquinolin-3-yl}oxy)-N-methylacetamide] has a Dmax (T47D) of no less than 70% and a DC50 of less than 10 nM.

`CNC(=O)COc1cc2cc(Nc3nc(N4CCC(OC5CCC6(CC5)CN(c5ccc7c(c5Cl)CN(C5CCC(=O)NC5=O)C7=O)C6)CC4)ncc3Cl)ccc2n(C(C)C)c1=O` (stereo not shown) [Compound 383, 2-{[6-({5-chloro-2-[4-({2-[4-chloro-2-(2,6-dioxopiperidin-3-yl)-1-oxo-2,3-dihydro-1H-isoindol-5-yl]-2-azaspiro[3.5]nonan-7-yl}oxy)piperidin-1-yl]pyrimidin-4-yl}amino)-2-oxo-1-(propan-2-yl)-1,2-dihydroquinolin-3-yl]oxy}-N-methylacetamide] showed a Dmax (T47D) of no less than 70% and a DC50 of less than 10 nM.

Compound `CNC(=O)COc1cc2cc(Nc3nc(N4CCN(CC5CCC6(CC5)CN(c5ccc7c(c5OC)CN(C5CCC(=O)NC5=O)C7=O)C6)CC4)ncc3Cl)ccc2n(C(C)C)c1=O` (stereo not shown) [Compound 331, 2-{[6-({5-chloro-2-[4-({2-[2-(2,6-dioxopiperidin-3-yl)-4-methoxy-1-oxo-2,3-dihydro-1H-isoindol-5-yl]-2-azaspiro[3.5]nonan-7-yl}methyl)piperazin-1-yl]pyrimidin-4-yl}amino)-2-oxo-1-(propan-2-yl)-1,2-dihydroquinolin-3-yl]oxy}-N-methylacetamide] has a Dmax (T47D) of 50 to 70% and a DC50 of 10 to 50 nM.

In the case of `CNC(=O)COc1cc2cc(Nc3nc(N4CCC(CN5CCC6(CN(c7ccc8c(c7)C(=O)N(C7CCC(=O)NC7=O)C8=O)C6)C(F)(F)C5)CC4)ncc3Cl)ccc2n(C(C)C)c1=O` (stereo not shown) [Compound 38, 2-{[6-({5-chloro-2-[4-({2-[2-(2,6-dioxopiperidin-3-yl)-1,3-dioxo-2,3-dihydro-1H-isoindol-5-yl]-5,5-difluoro-2,7-diazaspiro[3.5]nonan-7-yl}methyl)piperidin-1-yl]pyrimidin-4-yl}amino)-2-oxo-1-(propan-2-yl)-1,2-dihydroquinolin-3-yl]oxy}-N-methylacetamide], the DC50 [1] is reported as less than 10 nM and the Dmax [1] is reported as 50 to 70%.

`CNC(=O)COc1cc2cc(Nc3nc(N4CCOC5(CN(CCC6CCN(c7cccc8c7C(=O)N(C7CCC(=O)NC7=O)C8=O)CC6)C5)C4)ncc3Cl)ccc2n(C(C)C)c1=O` (stereo not shown) [Compound 16] gave a DC50 [1] of no less than 100 nM.

With `CNC(=O)COc1cc2c(F)c(Nc3nc(N4CCC(CN5CCC6(CC5)CN(c5ccc7c(c5)C(=O)N(C5CCC(=O)NC5=O)C7=O)C6(C)C)CC4)ncc3Cl)ccc2n(C(C)C)c1=O` (stereo not shown) [Compound 375, 2-{[6-({5-chloro-2-[4-({2-[2-(2,6-dioxopiperidin-3-yl)-1,3-dioxo-2,3-dihydro-1H-isoindol-5-yl]-1,1-dimethyl-2,7-diazaspiro[3.5]nonan-7-yl}methyl)piperidin-1-yl]pyrimidin-4-yl}amino)-5-fluoro-2-oxo-1-(propan-2-yl)-1,2-dihydroquinolin-3-yl]oxy}-N-methylacetamide] the Dmax (T47D) was no less than 70% and the DC50 was less than 10 nM.

`CNC(=O)COc1cc2cc(Nc3nc(N4CCC(O[C@H]5C[C@H](N6CC[C@@H](c7ccc8c(c7F)CN([C@H]7CCC(=O)NC7=O)C8=O)C[C@@H]6C)C5)CC4)ncc3Cl)ccc2n(C(C)C)c1=O` [Compound 292, 2-({6-[(5-chloro-2-{4-[(1r,3r)-3-[(2S,4R)-4-{2-[(3S)-2,6-dioxopiperidin-3-yl]-4-fluoro-1-oxo-2,3-dihydro-1H-isoindol-5-yl}-2-methylpiperidin-1-yl]cyclobutoxy]piperidin-1-yl}pyrimidin-4-yl)amino]-2-oxo-1-(propan-2-yl)-1,2-dihydroquinolin-3-yl}oxy)-N-methylacetamide] showed a Dmax (T47D) of no less than 70% and a DC50 of less than 10 nM.

For `CNC(=O)COc1cc2cc(Nc3nc(N4CCC(O[C@H]5C[C@H](N6CC[C@H](c7ccc8c(c7F)CN(C7CCC(=O)NC7=O)C8=O)C(C)(C)C6)C5)CC4)ncc3Cl)ccc2n(C(C)C)c1=O` (stereo partly drawn) [Compound 431, 2-({6-[(5-chloro-2-{4-[(1r,3r)-3-[(4S)-4-[2-(2,6-dioxopiperidin-3-yl)-4-fluoro-1-oxo-2,3-dihydro-1H-isoindol-5-yl]-3,3-dimethylpiperidin-1-yl]cyclobutoxy]piperidin-1-yl}pyrimidin-4-yl)amino]-2-oxo-1-(propan-2-yl)-1,2-dihydroquinolin-3-yl}oxy)-N-methylacetamide], the Dmax (T47D) was no less than 70% and the DC50 was less than 10 nM.

Compound `CNC(=O)COc1cc2cc(Nc3nc(N4CCC(CN5CCC6(CC5)CCN6c5ccc6c(c5)C(=O)N(C5CCC(=O)NC5=O)C6=O)CC4)ncc3Cl)ccc2n(C(C)C)c1=O` (stereo not shown) [Compound 335, 2-{[6-({5-chloro-2-[4-({1-[2-(2,6-dioxopiperidin-3-yl)-1,3-dioxo-2,3-dihydro-1H-isoindol-5-yl]-1,7-diazaspiro[3.5]nonan-7-yl}methyl)piperidin-1-yl]pyrimidin-4-yl}amino)-2-oxo-1-(propan-2-yl)-1,2-dihydroquinolin-3-yl]oxy}-N-methylacetamide] has a Dmax (T47D) of no less than 70% and a DC50 of less than 10 nM.

For `CNC(=O)COc1cc2cc(Nc3nc(N4CCC(O[C@H]5C[C@H](N6CCC(c7ccc8c(c7F)[C@@H](C)N(C7CCC(=O)NC7=O)C8=O)CC6)C5)CC4)ncc3Cl)ccc2n(C(C)C)c1=O` (stereo partly drawn) [Compound 289, 2-({6-[(5-chloro-2-{4-[(1r,3r)-3-{4-[(3R)-2-(2,6-dioxopiperidin-3-yl)-4-fluoro-3-methyl-1-oxo-2,3-dihydro-1H-isoindol-5-yl]piperidin-1-yl}cyclobutoxy]piperidin-1-yl}pyrimidin-4-yl)amino]-2-oxo-1-(propan-2-yl)-1,2-dihydroquinolin-3-yl}oxy)-N-methylacetamide], the Dmax (T47D) was no less than 70% and the DC50 was less than 10 nM.

`CNC(=O)COc1cc2cc(Nc3nc(N4CCC(O[C@H]5C[C@H](N6CCC7(CC6)CN(c6ccc8c(c6C)C(=O)N(C6CCC(=O)NC6=O)C8=O)C7)C5)CC4)ncc3Cl)ccc2n(C(C)C)c1=O` (stereo partly shown) [Compound 414, 2-({6-[(5-chloro-2-{4-[(1r,3r)-3-{2-[2-(2,6-dioxopiperidin-3-yl)-4-methyl-1,3-dioxo-2,3-dihydro-1H-isoindol-5-yl]-2,7-diazaspiro[3.5]nonan-7-yl}cyclobutoxy]piperidin-1-yl}pyrimidin-4-yl)amino]-2-oxo-1-(propan-2-yl)-1,2-dihydroquinolin-3-yl}oxy)-N-methylacetamide] gave a Dmax (T47D) of no less than 70% and a DC50 of less than 10 nM.

With `CNC(=O)COc1cc2cc(Nc3nc(N4CCC(O[C@H]5C[C@@H](N6CCC(c7ccc8c(c7)C(=O)N(C7CCC(=O)NC7=O)C8=O)CC6)C5)CC4)ncc3Cl)ccc2n(C(C)C)c1=O` (stereo partly shown) [Compound 153, 2-({6-[(5-chloro-2-{4-[(1s,3s)-3-{4-[2-(2,6-dioxopiperidin-3-yl)-1,3-dioxo-2,3-dihydro-1H-isoindol-5-yl]piperidin-1-yl}cyclobutoxy]piperidin-1-yl}pyrimidin-4-yl)amino]-2-oxo-1-(propan-2-yl)-1,2-dihydroquinolin-3-yl}oxy)-N-methylacetamide] the DC50 [1] was 50 to 100 nM and the Dmax [1] was less than 50%.
